Data taken from patent US12570655B2, “Cysteine covalent modifiers of AKT1 and uses thereof” (Terremoto Biosciences, Inc., priority 2023, dated 2026).
Where two headings read alike, the source gives them in different places.

Tests used:
Assay type in all cases: cell-based
AKT1 E17K = target: T1, AKT1 E17K (Homo sapiens, UniProt P31749, E17K); test: Live cell AKT1 E17K target engagement by NanoBRET competitive probe displacement; conditions: HEK293 cells transfected with kinase-NanoLuciferase fusion, 2 h at 37° C.
T1 construct: expressed in transfected cells; host or cells: HEK293
T1 sequence (P31749 whole entry E17K, the tested form may be a part): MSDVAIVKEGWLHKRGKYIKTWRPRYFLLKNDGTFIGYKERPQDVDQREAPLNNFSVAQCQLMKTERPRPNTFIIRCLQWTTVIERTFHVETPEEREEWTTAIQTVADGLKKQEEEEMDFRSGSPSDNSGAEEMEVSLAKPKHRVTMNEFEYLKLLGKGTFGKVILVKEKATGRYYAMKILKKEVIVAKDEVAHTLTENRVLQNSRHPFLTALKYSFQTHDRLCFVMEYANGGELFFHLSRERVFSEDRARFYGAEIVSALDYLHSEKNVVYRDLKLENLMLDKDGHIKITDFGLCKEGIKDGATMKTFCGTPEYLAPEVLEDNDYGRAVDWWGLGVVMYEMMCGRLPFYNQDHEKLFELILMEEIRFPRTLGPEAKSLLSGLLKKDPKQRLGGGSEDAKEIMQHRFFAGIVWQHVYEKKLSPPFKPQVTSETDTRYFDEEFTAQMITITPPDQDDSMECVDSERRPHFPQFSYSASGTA
Summary of the method: (§1)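 IC50 reflects displacement of a fluorescent ATP-competitive tracer, dosed near its EC50, from kinase–NanoLuciferase fusions in live HEK293 cells. Cells were incubated with compound and tracer for 2 h at 37 °C, then E600/E460 BRET was read.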

[1] = test system: LAPC4 prostate cancer cells; test: Antiproliferative effects in LAPC4 cells (CellTiter Glo); conditions: LAPC4 cells (AKT1 E17K allele), read-out: LAPC4 proliferation IC50
Summary of the method: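 Seed 1,000 cells/well in IMDM/12% FBS/1% P/S; add compound dilutions (DMSO); incubate 72 h; read intracellular ATP with CellTiter Glo; fit luminescence to log(inhibitor)-response Hill curve for IC50.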

AKT2 = target: T2, AKT2 (Homo sapiens, UniProt P31751); test: Live cell AKT2 target engagement by NanoBRET competitive probe displacement; conditions: HEK293 cells transfected with kinase-NanoLuciferase fusion, 2 h at 37° C.
T2 construct: expressed in transfected cells; host or cells: HEK293
T2 sequence (P31751 whole entry, the tested form may be a part): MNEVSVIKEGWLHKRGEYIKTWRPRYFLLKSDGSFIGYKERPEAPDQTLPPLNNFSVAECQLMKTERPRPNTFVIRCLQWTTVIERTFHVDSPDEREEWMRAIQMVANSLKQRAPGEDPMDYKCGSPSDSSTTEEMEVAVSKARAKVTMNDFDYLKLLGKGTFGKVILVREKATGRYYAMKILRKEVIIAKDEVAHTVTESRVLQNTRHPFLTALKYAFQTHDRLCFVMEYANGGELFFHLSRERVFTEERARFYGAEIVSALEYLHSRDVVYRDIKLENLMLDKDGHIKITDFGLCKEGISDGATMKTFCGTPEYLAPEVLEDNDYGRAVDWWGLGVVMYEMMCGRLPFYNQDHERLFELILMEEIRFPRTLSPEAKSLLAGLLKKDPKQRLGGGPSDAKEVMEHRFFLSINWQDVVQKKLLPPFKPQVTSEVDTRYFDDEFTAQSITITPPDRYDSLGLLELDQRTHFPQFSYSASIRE
Summary of the method: as §1

AKT1 WT = target: T3, AKT1 WT (Homo sapiens, UniProt P31749); test: Live cell AKT1 WT target engagement by NanoBRET competitive probe displacement; conditions: HEK293 cells transfected with kinase-NanoLuciferase fusion, 2 h at 37° C.
T3 construct: expressed in transfected cells; host or cells: HEK293
T3 sequence (P31749 whole entry, the tested form may be a part): as the sequence (P31749 whole entry E17K, the tested form may be a part) above, with K17E counted along it
Summary of the method: as §1

Structure (SMILES)	IC50 (AKT1 E17K) [nM]	IC50 ([1]; 72 h) [nM]	IC50 (AKT2) [nM]	IC50 (AKT1 WT) [nM]	IC50 ([1]; Homo sapiens, LAPC4, 72 h) [nM]
C=CC(=O)N(C)c1ccccc1C(=O)N[C@H]1CCc2cc(-n3c(-c4cccnc4N)nc4ccc(-n5cccn5)nc43)ccc21 [Example 4, (S)-N-(5-(2-(2-aminopyridin-3-yl)-5-(1H-pyrazol-1-yl)-3H-imidazo[4,5-b]pyridin-3-yl)-2,3-dihydro-1H-inden-1-yl)-2-(N-methylacrylamido)benzamide]	823		3750	212	4210
C=C(F)C(=O)N1CCc2c(C(=O)N[C@H]3CCc4cc(-n5c(-c6cccnc6N)nc6ccc(-n7cccn7)nc65)ccc43)cccc21 [Example 18, (S)-N-(5-(2-(2-aminopyridin-3-yl)-5-(1H-pyrazol-1-yl)-3H-imidazo[4,5-b]pyridin-3-yl)-2,3-dihydro-1H-inden-1-yl)-1-(2-fluoroacryloyl)indoline-4-carboxamide]	243		208	61.5	1570
C=CC(=O)N(C)CC(=O)N[C@H]1CCc2cc(-n3c(-c4cccnc4N)nc4ccc(-n5cccn5)nc43)ccc21 [Example 52, (S)-N-(2-((5-(2-(2-aminopyridin-3-yl)-5-(1H-pyrazol-1-yl)-3H-imidazo[4,5-b]pyridin-3-yl)-2,3-dihydro-1H-inden-1-yl)amino)-2-oxoethyl)-N-methylacrylamide]	949		3480	174	911
C=CC(=O)N1CCC(N[C@H]2CCc3cc(-n4c(-c5cccnc5N)nc5ccc(C6CC6)nc54)ccc32)CC1 [Example 85, (S)-1-(4-((5-(2-(2-aminopyridin-3-yl)-5-cyclopropyl-3H-imidazo[4,5-b]pyridin-3-yl)-2,3-dihydro-1H-inden-1-yl)amino)piperidin-1-yl)prop-2-en-1-one]	546		865	46	1390
C=CC(=O)N1C[C@H]2COC[C@@H](C1)C2N[C@H]1CCc2cc(-n3c(-c4cccnc4N)nc4ccc(-n5cccn5)nc43)ccc21 (single isomer, unassigned) [Example 72, 1-((1R,5S,9*)-9-(((S)-5-(2-(2-aminopyridin-3-yl)-5-(1H-pyrazol-1-yl)-3H-imidazo[4,5-b]pyridin-3-yl)-2,3-dihydro-1H-inden-1-yl)amino)-3-oxa-7-azabicyclo[3.3.1]nonan-7-yl)prop-2-en-1-one]	75.2	493	289	15.8	
C=CC(=O)N1CCC(N[C@H]2CCc3cc(-n4c(-c5cccnc5N)nc5ccc(-n6cccn6)nc54)ccc32)CC12CCC2 (single isomer, unassigned) [Example 94, 1-((*)-8-(((S)-5-(2-(2-aminopyridin-3-yl)-5-(1H-pyrazol-1-yl)-3H-imidazo[4,5-b]pyridin-3-yl)-2,3-dihydro-1H-inden-1-yl)amino)-5-azaspiro[3.5]nonan-5-yl)prop-2-en-1-one]	652	1170	2640	147	
C=CC(=O)N1CCC(N[C@@H]2c3ccc(-n4c(-c5cccnc5N)nc5ccc(-n6cccn6)nc54)cc3CC2C)CC1 (single isomer, unassigned) [Example 181, 1-(4-{[(1S,2*)-5-[2-(2-aminopyridin-3-yl)-5-(pyrazol-1-yl)imidazo[4,5-b]pyridin-3-yl]-2-methyl-2,3-dihydro-1H-inden-1-yl]amino}piperidin-1-yl)prop-2-en-1-one]	58.7	941	513	1140	
C=CC(=O)N1CCC(N[C@@H]2c3ccc(-n4c(-c5cccnc5N)nc5ccc(-n6cccn6)nc54)cc3CC2F)C[C@H]1C (single isomer, unassigned) [Example 145, 1-((2R,4*)-4-(((1R,2*)-5-(2-(2-aminopyridin-3-yl)-5-(1H-pyrazol-1-yl)-3H-imidazo[4,5-b]pyridin-3-yl)-2-fluoro-2,3-dihydro-1H-inden-1-yl)amino)-2-methylpiperidin-1-yl)prop-2-en-1-one]	187	436	1030	29.7	
C=CC(=O)N1CCC(N[C@H]2CCc3cc(-n4c(-c5cccnc5N)nc5ccc(-n6cccn6)nc54)ccc32)C(C)C1 (single isomer, unassigned) [Example 101, 1-((3*,4*)-4-(((S)-5-(2-(2-aminopyridin-3-yl)-5-(1H-pyrazol-1-yl)-3H-imidazo[4,5-b]pyridin-3-yl)-2,3-dihydro-1H-inden-1-yl)amino)-3-methylpiperidin-1-yl)prop-2-en-1-one]	82.3	270	290	18.3	
C=CC(=O)N1CCC(N[C@H]2CCc3cc(-n4c(-c5cccnc5N)nc5ccc(-n6cccn6)nc54)ccc32)C[C@H]1COC (single isomer, unassigned) [Example 130, 1-[(2S,4*)-4-{[(1S)-5-[2-(2-aminopyridin-3-yl)-5-(pyrazol-1-yl)imidazo[4,5-b]pyridin-3-yl]-2,3-dihydro-1H-inden-1-yl]amino}-2-(methoxymethyl)piperidin-1-yl]prop-2-en-1-one]	76.4	174	672	26.5	

Molecules with a lower IC50 (AKT1 E17K), results first:

IC50 (AKT1 E17K) [nM]	IC50 ([1]; 72 h) [nM]	IC50 (AKT2) [nM]	IC50 (AKT1 WT) [nM]	IC50 ([1]; Homo sapiens, LAPC4, 72 h) [nM]	Structure (SMILES)
17.7	362	89.5	542		C=CC(=O)N1CCC(N[C@@H]2c3ccc(-n4c(-c5cccnc5N)nc5ccc(-n6ccc(F)n6)nc54)cc3CC2F)CC1 (single isomer, unassigned) [Example 237, 1-(4-(((1R,2*)-5-(2-(2-aminopyridin-3-yl)-5-(3-fluoro-1H-pyrazol-1-yl)-3H-imidazo[4,5-b]pyridin-3-yl)-2-fluoro-2,3-dihydro-1H-inden-1-yl)amino)piperidin-1-yl)prop-2-en-1-one]
21.9	104	84.6	10.4		C=CC(=O)N1CCC(N[C@H]2CCc3cc(-n4c(-c5cccnc5N)nc5ccc(-n6cccn6)nc54)ccc32)C1 (single isomer, unassigned) [Example 57, 1-((*)-3-(((S)-5-(2-(2-aminopyridin-3-yl)-5-(1H-pyrazol-1-yl)-3H-imidazo[4,5-b]pyridin-3-yl)-2,3-dihydro-1H-inden-1-yl)amino)pyrrolidin-1-yl)prop-2-en-1-one]
26.9		29.6	9.31	27.4	C=CC(=O)N1CCC(N[C@H]2CCc3cc(-n4c(-c5cccnc5N)nc5ccc(-c6cnn(C)n6)nc54)ccc32)CC1 [Example 160, 1-(4-{[(1S)-5-[2-(2-aminopyridin-3-yl)-5-(2-methyl-1,2,3-triazol-4-yl)imidazo[4,5-b]pyridin-3-yl]-2,3-dihydro-1H-inden-1-yl]amino}piperidin-1-yl)prop-2-en-1-one]
22.9	74.9	75.2	8.15		C=CC(=O)NC1CC(N[C@H]2CCc3cc(-n4c(-c5cccnc5N)nc5ccc(-n6cccn6)nc54)ccc32)C1 (single isomer, unassigned) [Example 89, N-((1*,3*)-3-(((S)-5-(2-(2-aminopyridin-3-yl)-5-(1H-pyrazol-1-yl)-3H-imidazo[4,5-b]pyridin-3-yl)-2,3-dihydro-1H-inden-1-yl)amino)cyclobutyl)acrylamide]
21.7	674	248	928		C=CC(=O)N1CCC(N[C@@H]2c3ccc(-n4c(-c5cccnc5N)nc5ccc(-n6ccc(F)n6)nc54)cc3CC2F)C[C@@H]1C (single isomer, unassigned) [Example 271, 1-((2S,4*)-4-(((1R,2*)-5-(2-(2-aminopyridin-3-yl)-5-(3-fluoro-1H-pyrazol-1-yl)-3H-imidazo[4,5-b]pyridin-3-yl)-2-fluoro-2,3-dihydro-1H-inden-1-yl)amino)-2-methylpiperidin-1-yl)prop-2-en-1-one]
48.7	87.7	180	21.5		C=CC(=O)N1[C@H](C)CC(N[C@H]2CCc3cc(-n4c(-c5cccnc5N)nc5ccc(-n6cccn6)nc54)ccc32)C[C@@H]1C (single isomer, unassigned) [Example 88, 1-((2S,4*,6R)-4-(((R)-5-(2-(2-aminopyridin-3-yl)-5-(1H-pyrazol-1-yl)-3H-imidazo[4,5-b]pyridin-3-yl)-2,3-dihydro-1H-inden-1-yl)amino)-2,6-dimethylpiperidin-1-yl)prop-2-en-1-one]
34.9		246	1190	496	C=CC(=O)N1CCC(N[C@@H]2c3ccc(-n4c(-c5cccnc5N)nc5ccc(-n6ccc(C#N)n6)nc54)cc3CC2F)CC1 (single isomer, unassigned) [Example 311, 1-(3-((1R,2*)-1-((1-acryloylpiperidin-4-yl)amino)-2-fluoro-2,3-dihydro-1H-inden-5-yl)-2-(2-aminopyridin-3-yl)-3H-imidazo[4,5-b]pyridin-5-yl)-1H-pyrazole-3-carbonitrile]
12.6		57.9	12.9	30.8	C=CC(=O)N1CC2(CC(N[C@H]3CCc4cc(-n5c(-c6cccnc6N)nc6ccc(-n7cccn7)nc65)ccc43)C2)C1 [Example 31, 1-(6-{[(1S)-5-[2-(2-aminopyridin-3-yl)-5-(pyrazol-1-yl)imidazo[4,5-b]pyridin-3-yl]-2,3-dihydro-1H-inden-1-yl]amino}-2-azaspiro[3.3]heptan-2-yl)prop-2-en-1-one]
